Our source for the logP values is the OPERA property sets (Mansouri et al. 2018).

Peptide text beside a SMILES is read from it.

In the case of `C#CC(C)(C)O`, the logP was 0.28.
The same measure for `O=C(O)c1cccc(Oc2ccccc2)c1`: 3.91; for `CCC(C)c1ccccc1O` (centres undefined): 3.27; for `NC(CC12CC3CC(CC(C3)C1)C2)C(=O)O` (centres undefined): 0.43.
Next, `CC(C)CC#N`: 1.07.
The same measure for `CC(=O)c1ccc(N)cc1`: 0.83.
For `CC1CC2C3CC(F)C4=CC(=O)C(Cl)=CC4(C)C3(F)C(O)CC2(C)C1(O)C(=O)CO` (centres undefined), the logP was 2.58.
The same measure for `COc1ccccc1NC(C)=O`: 0.67; for `NC(=O)c1cccc([N+](=O)[O-])c1`: 0.77; for `CCOP(=S)(OCC)Oc1cc(C)nc(C(C)C)n1`: 3.81.
The same measure for `N#CC(C#N)=NNc1ccccc1`: 2.67; for `COC(=O)C(C)N(C(=O)Cc1ccccc1)c1c(C)cccc1C` (centres undefined): 3.4.
The same measure for `C=CCBr`: 1.79; for `CN(C)C(N(C)C)=S(I)c1ccc(Cl)c(Cl)c1` (centres undefined): 0.49; for `FC(F)(F)c1nc2c(Br)c(Br)c(Br)c(Br)c2[nH]1`: 4.81.
`COc1ccc2cnccc2c1` showed a log partition coefficient (logP) of 2.22.
Turning to `c1ccc(-c2nc3ccccc3s2)cc1`, the logP is 4.26.
In turn, `CC1CCC(=O)CC1` displayed a logP of 1.38.
As to `COCC(C)OC` (centres undefined), the logP was -0.09.
Next, `c1ccc2nccnc2c1`: 1.32; `COCC(c1c(O)c2ccccc2oc1=O)c1c(O)c2ccccc2oc1=O`: 1.38; `CC(=O)c1cccc(C(=O)O)c1`: 1.56.
The same measure for `CN(C)CCN(C)S(=O)(=O)c1ccc(C(C)(C)[N+](=O)[O-])c([N+](=O)[O-])c1`: 1.42; for `CCCCCOC(=O)NC`: 1.96.
The same measure for `CCCCCCCCOC(=O)c1cc(O)c(O)c(O)c1`: 3.66; for `NS(=O)(=O)c1cccc(S(N)(=O)=O)c1`: -0.55; for `ON=Cc1ccc(Cl)cc1`: 2.67.
Regarding `CC(=O)OC(OC(C)=O)c1ccccc1`, the logP was 1.62.
For `O=C1C=C(N2CC2)C(=O)c2ccccc21`, the logP was 1.71.
Next, `CCCCCCc1ccc(C(=O)OCCN(C)C)cc1`: 5.2; `CC(=O)c1cccc(C#N)c1`: 1.16; `COc1ccc(COC(=O)N(C)C)cc1`: 2.2.
Next, `CCC1(CC)C(=O)NC(=O)NC1=O`: 0.65; `CCC(C)C(NC(=O)C(Cc1ccccc1)NC(C)=O)C(=O)NCC(N)=O` (stereo not drawn) (Ac-Phe-Ile-Gly-NH2; configuration not given here): 0.34; `CC(=O)NC(Cc1c[nH]c2ccccc12)C(=O)NCC(=O)NC(Cc1ccccc1)C(N)=O` (stereo not drawn) (Ac-Trp-Gly-Phe-NH2; configuration not given here): 0.99.
The same measure for `O=C(NC(CO)C(O)c1ccc([N+](=O)[O-])cc1)C(F)(F)F` (centres undefined): 1.07; for `O=C(NCC(O)CO)c1c(I)c(C(=O)NCC(O)CO)c(I)c(N(CCO)C(=O)CO)c1I` (centres undefined): -2.98.
`COC(=O)CCc1ccccc1` gave a lipophilicity (logP) of 2.32.
The same measure for `Cc1c[nH]cn1`: 0.23.
Next, `CC(=O)c1cn(C)c2ccccc12`: 1.95.
Take `CC(C)OC(=O)n1cnc(CC(NC(=O)C2CCC(=O)N2)C(=O)N2CCCC2C(N)=O)c1` (centres undefined): the logP was -0.8.
Next, `CCCOC(C)=O`: 1.24; `CNCc1ccccc1`: 1.52; `ON=Cc1ccccc1`: 1.85.
The same measure for `O=[N+]([O-])c1cc(Cl)c(O)c(Cl)c1`: 2.94; for `Nc1ccc(C(=O)O)c(I)c1`: 1.65.
In turn, `COC(=O)C(C)N(C(=O)c1ccco1)c1c(C)cccc1C` (centres undefined) had a logP of 2.61.
With `CC1CCCCC1`, the logP turned out to be 3.61.
For `O=C(Oc1ccc(N=C=S)cc1)c1ccccc1`, the logP was found to be 4.9.
Next, `Nc1cc(C(F)(F)F)cc(C(F)(F)F)c1`: 3.57; `CC(Oc1cc(Cl)c(Cl)cc1Cl)C(=O)O` (centres undefined): 3.8.
The same measure for `O=C(O)c1cc2ccccc2o1`: 2.41.
The compound `O=C(O)Cn1nc2ccccc2n1` gave a logP of -1.64.
The same measure for `CC/C(=C(/CC)c1ccc(O)cc1)c1ccc(O)cc1`: 5.07; for `CCC(C)c1ccc(OCC(=O)O)cc1` (centres undefined): 3.12; for `CN(C)c1ccc2cccnc2c1`: 2.71.
The same measure for `NNC(=O)c1ccccc1N`: -0.18; for `Clc1ccccc1-c1cccc(Cl)c1Cl`: 5.31.
The same measure for `COC(=O)CC(=O)OC`: -0.05; for `Cc1ccno1`: 0.45; for `Cl[C@H]1[C@H](Cl)[C@@H](Cl)[C@@H](Cl)[C@H](Cl)[C@H]1Cl` (racemic): 3.72.
With `NS(=O)(=O)c1cccc([N+](=O)[O-])c1`, the logP amounted to 0.55.
The same measure for `CN(C)C(N(C)C)=S(I)c1cccc(F)c1` (centres undefined): -0.53; for `CNc1nc(NC(C)C)nc(SC(F)F)n1`: 3.27.
Compound `Cc1n[nH]c(C(=O)Nc2ccccc2)c1[N+](=O)[O-]` showed a logP of 1.81.
Next, `CC(F)F`: 0.75.
The same measure for `NS(=O)(=O)c1ccccc1[N+](=O)[O-]`: 0.34.
Next, `CC(=O)c1ccc(N2CCCCC2)cc1`: 3.13.
As to `CCCNC(=O)c1cccnc1`, the logP was 0.66.
Next, `Cc1ccccc1C`: 3.12; `CC(=O)CCCc1ccccc1`: 2.42.
The same measure for `O=Cc1cccc(C(F)(F)F)c1`: 2.47; for `COC(=O)c1ccco1`: 1; for `c1ccc2c(c1)ccc1ccccc12`: 4.46.
The same measure for `C/C(=N/Nc1nc(C)cc(C)n1)c1ccccc1C`: 2.98.
`Cc1cnc2ccccc2n1` yielded a logP of 1.61.
The same measure for `CC(=O)C(=Cc1ccc(C)cc1)C(C)=O`: 2.14; for `COc1ccc2c(c1)nc(N)n2C`: 0.87.
The same measure for `CNC(=O)Oc1cccc(OC(C)C)c1`: 1.96; for `CC[C@H](C)[C@H](NC(C)=O)C(=O)N[C@@H](C)C(=O)N[C@H](C(N)=O)C(C)C`: -0.21; for `COc1ccc(C(=O)OCCN(C)C)cc1`: 2.21.
`CCOP(=S)(OCC)SCn1nnc2ccccc2c1=O` showed a logP of 3.4.
Next, `Cc1ccc(NC(=O)N(C)C)cc1`: 1.33.
Next, `CCCC(=O)OCC1CCC(n2cnc3c(=O)[nH]cnc32)O1` (centres undefined): 0.11; `CCNC(=O)c1[nH]nc(C)c1[N+](=O)[O-]`: 0.13.
Next, `O=C1CCCCO1`: -0.35; `Cc1cccnc1`: 1.2.
The compound `CC(C)S[C@@H]1O[C@H](CO)[C@H](O)[C@H](O)[C@H]1O` registered a logP of -1.26.
On to `CCC1C(=O)NC(=O)NC1=O`, for which the logP was -0.35.
Next, `CCNCCc1cccnc1`: 0.54; `Cc1ccc(N=C=S)cc1`: 3.92; `Cc1ccc(C(=O)O)c(O)c1`: 2.99.
The same measure for `BrCCCc1ccccc1`: 3.72; for `Oc1cc(Cl)cc(Cl)c1Cl`: 3.84; for `NCCO`: -1.31.
The same measure for `O=[N+]([O-])c1cccc2cc[nH]c12`: 2.63; for `CCCCCCC(=O)NN`: 0.97.
The compound `CCNc1nc(NC(C)(C)C)nc(SC(F)F)n1` yielded a logP of 4.57.
Next, `COC(=O)C(Cc1ccc(O)cc1)NC(C)=O` (centres undefined): 0.33.
Next, `O=NN1CCCCCC1`: 0.92; `Cc1cc(C)c(C)cc1C`: 4; `CC1CC2OC(=O)C(C)C2C(OC(=O)CC(=O)OC2C3C(CC(C)C4CCC(=O)C42C)OC(=O)C3C)C2(C)C(=O)CCC12` (centres undefined): 0.76.
Next, `CCC(C)c1cc([N+](=O)[O-])cc(C(C)C)c1O` (centres undefined): 4.19; `N#Cc1cc(-c2ccccc2)nnc1NCCN1CCOCC1`: 1.89; `O=[N+]([O-])c1ccsc1`: 1.55.
`CCCCCC(C)(C)c1ccc(C2CCCC(O)C2)c(O)c1` (centres undefined) showed a logP of 5.97.
Next, `Cc1ccccc1N`: 1.32.
In turn, `COc1cc(S(C)=O)ccc1-c1nc2cnncc2[nH]1` (centres undefined) yielded a logP of 0.39.
The compound `Nc1cc2ccccc2nn1` had a logP of 1.
`CC(C)(C)CO` came in with a logP of 1.31.
For the compound `Oc1c(F)cc(Cn2cc[nH]c2=S)cc1F`, the logP worked out at 1.08.
As to `O=C(O)Cc1ccccc1O`, the logP amounted to 0.85.
Next, `CN(C)C(=O)C12CC3CC(CC(C3)C1)C2`: 2.55; `CC1=NCCN1`: 0.52; `Oc1c(Cl)c(Cl)cc(Cl)c1Cl`: 3.88.
Next, `CC(C)(C)C(N)Cc1ccccc1` (centres undefined): 2.91; `Cc1cc(=O)oc2cc(O)ccc12`: 1.9.
The same measure for `Clc1cc(Cl)c(Cl)nc1Cl`: 3.32; for `CCOC(=O)C(=Cc1cccc(OC)c1)C(C)=O`: 2.34.
`Oc1cccc2c(O)cccc12` gave a logP of 1.94.
Next, `O=C(Nc1ccccc1)Oc1ccccc1`: 3.3; `CCOC(=O)CC(SP(=S)(OC)OC)C(=O)OCC` (centres undefined): 2.36; `Oc1cccc(I)c1`: 2.93.
The same measure for `CC1(O)CC23CC(O)C4(O)C(CC(O)C4(C)C)C(C)(O)C2CCC1C3O` (centres undefined): 0.27; for `Cc1cc2c(cc1S(N)(=O)=O)S(=O)(=O)NCN2`: -0.22; for `C=CCC1(CC)C(=O)NC(=O)NC1=O`: 0.95.
The same measure for `CC(=O)c1cccc(Cl)c1`: 2.51.
Take `NC(N)=O`: the logP is -2.11.
The same measure for `CN1CCCCC1`: 1.3; for `CC(C)=CC1C(C(=O)OCc2ccccc2)C1(C)C` (centres undefined): 5.49.
The same measure for `CC(C)CCn1cnc([N+](=O)[O-])n1`: 1.34; for `Oc1c(Cl)cc(Cl)c(Cl)c1Cl`: 4.45.
The same measure for `CC(=O)Nc1ccccc1`: 1.16.
Take `CN1CC[C@]23c4c5ccc(O)c4O[C@H]2C(=O)CC[C@@]3(O)[C@H]1C5`: the log partition coefficient (logP) came to 0.83.
